Results reported in PubChem BioAssay (NCI).
Values joined by “and” are separate entries in the source; they are usually repeats but may differ in a detail not shown here. Equal values may be shown once.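 Assay format: 96-well plates, 48-hour exposure. GI50 = concentration required for 50% inhibition of growth. TGI marks complete inhibition of growth.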

Experiments:
Assay in all cases: NCI tumour cell line growth inhibition, 48 h
SNB-75 CNS = test system: SNB-75 CNS
RPMI-8226 leukemia = test system: RPMI-8226 leukemia
HCC-2998 colon = test system: HCC-2998 colon
A549 NSCLC = test system: A549 NSCLC
BT-549 breast = test system: BT-549 breast
RXF 393 renal = test system: RXF 393 renal
OVCAR-8 ovarian = test system: OVCAR-8 ovarian
IGROV1 ovarian = test system: IGROV1 ovarian
SF-539 CNS = test system: SF-539 CNS
HL-60(TB) leukemia = test system: HL-60(TB) leukemia
OVCAR-5 ovarian = test system: OVCAR-5 ovarian
SW-620 colon = test system: SW-620 colon
HOP-92 NSCLC = test system: HOP-92 NSCLC
NCI-H522 lung = test system: NCI-H522 lung
KM12 colon = test system: KM12 colon
OVCAR-3 ovarian = test system: OVCAR-3 ovarian
MDA-MB-231 breast = test system: MDA-MB-231 breast
NCI/ADR-RES ovarian = test system: NCI/ADR-RES ovarian

SMILES	TGI (SNB-75 CNS)	TGI (RPMI-8226 leukemia)	TGI (HCC-2998 colon)	TGI (A549 NSCLC)	TGI (BT-549 breast)	TGI (RXF 393 renal)	TGI (OVCAR-8 ovarian)	TGI (IGROV1 ovarian)	TGI (SF-539 CNS)	TGI (HL-60(TB) leukemia)	TGI (OVCAR-5 ovarian)	TGI (SW-620 colon)	TGI (HOP-92 NSCLC)	TGI (NCI-H522 lung)	TGI (KM12 colon)	TGI (OVCAR-3 ovarian)	TGI (MDA-MB-231 breast)	TGI (NCI/ADR-RES ovarian)	GI50 (MDA-MB-231 breast)
O=C1CN(c2ccc(Cl)cc2)C(=O)CN1NCNN1CC(=O)N(c2ccc(Cl)cc2)CC1=O	> 100 µM	> 100 µM	> 100 µM	> 100 µM	> 100 µM	> 100 µM	> 100 µM	> 100 µM	> 100 µM	> 100 µM	> 100 µM	> 100 µM	> 100 µM	> 100 µM	> 100 µM	> 100 µM	–	–	–
O=C(Nn1cnn2c(=O)c3ccccc3nc2c1=O)c1ccccc1	> 100 µM	> 100 µM	> 100 µM	> 100 µM	> 100 µM	–	> 100 µM	> 100 µM	> 100 µM	> 100 µM	> 100 µM	> 100 µM	> 100 µM	> 100 µM	> 100 µM	> 100 µM	> 100 µM	–	–
O=C1[C@H](Cl)[C@H]2c3cc4ccccc4nc3Oc3ccccc3N12	17.7 µM	65.5 µM	> 100 µM	> 100 µM	–	–	> 100 µM	> 100 µM	–	> 100 µM	> 100 µM	> 100 µM	–	88 µM	> 100 µM	> 100 µM	–	–	–
COC(=O)c1c2c(cc3c1CC1(Cc4cc5c(cc4C1)CCC5)C3)CCC2	> 100 µM	> 100 µM	> 100 µM	> 100 µM	–	> 100 µM	> 100 µM	> 100 µM	> 100 µM	> 100 µM	> 100 µM	> 100 µM	> 100 µM	> 100 µM	–	> 100 µM	> 100 µM	> 100 µM	–
COC(=O)c1c(C(=O)OC)c2c3ccccc3n(C)c2c2c1c1ccccc1n2C	> 100 µM	> 100 µM	> 100 µM	> 100 µM	> 100 µM	–	> 100 µM	> 100 µM	> 100 µM	–	> 100 µM	> 100 µM	> 100 µM	> 100 µM	> 100 µM	–	> 100 µM	> 100 µM	–
COc1ccc2nc3n(c2c1)C(c1c(Cl)cccc1Cl)SC3 (configuration not stated)	> 100 µM	> 100 µM	> 100 µM	> 100 µM	> 100 µM	> 100 µM	> 100 µM	> 100 µM	–	> 100 µM	> 100 µM	> 100 µM	> 100 µM	–	> 100 µM	> 100 µM	–	> 100 µM	–
O=C(NNC(=S)NCc1ccccc1)C12CC3CC(CC(C3)C1)C2	> 100 µM	> 100 µM	> 100 µM	–	> 100 µM	> 100 µM	> 100 µM	> 100 µM	> 100 µM	51.7 µM	> 100 µM	> 100 µM	–	> 100 µM	> 100 µM	> 100 µM	> 100 µM	> 100 µM	–
CCCCCCCCCc1c(O)c(O)c(CCCCCCCCC)c(CCCCCCCCC)c1CCCCCCCCC	–	> 100 µM	> 100 µM	> 100 µM	> 100 µM	> 100 µM	> 100 µM	> 100 µM	> 100 µM	50 µM	> 100 µM	> 100 µM	–	> 100 µM	> 100 µM	> 100 µM	> 100 µM	> 100 µM	–
CC(O[Si](c1ccccc1)(c1ccccc1)C(C)(C)C)[C@H](NC(=O)OC(C)(C)C)C(=O)O (some centres not stated)	> 100 µM	> 100 µM	> 100 µM	> 100 µM	–	> 100 µM	> 100 µM	50.2 µM	–	59.8 µM	> 100 µM	> 100 µM	78.1 µM	–	> 100 µM	–	–	> 100 µM	–
O=C(O)C12C3CCC(O3)C1(C(=O)O)C1CCC2O1 (configuration not stated)	> 100 µM	> 100 µM	> 100 µM	> 100 µM	> 100 µM	> 100 µM	> 100 µM	> 100 µM	> 100 µM	> 100 µM	> 100 µM	> 100 µM	–	> 100 µM	> 100 µM	> 100 µM	> 100 µM	> 100 µM	42.2 µM and 85.8 µM
Cn1c(=O)oc2cc(Br)ccc21	> 100 µM	> 100 µM	> 100 µM	> 100 µM	–	> 100 µM	> 100 µM	> 100 µM	> 100 µM	> 100 µM	> 100 µM	> 100 µM	–	> 100 µM	> 100 µM	> 100 µM	> 100 µM	> 100 µM	–
O=C(O)CC1CC=C[C@H]2c3cc4c(cc3C(=O)NC12)OCO4 (some centres not stated)	> 75 µM	> 75 µM	> 75 µM	> 75 µM	–	> 75 µM	> 75 µM	> 75 µM	> 75 µM	> 75 µM	–	> 75 µM	–	> 75 µM	> 75 µM	> 75 µM	–	–	–
CC(=O)ON(C(C)=O)C1C(COC(c2ccccc2)(c2ccccc2)c2ccccc2)OC2OC3(CCCC3)OC21 (configuration not stated)	> 100 µM	9.83 µM	> 100 µM	> 100 µM	–	60.4 µM	> 100 µM	> 100 µM	> 100 µM	> 100 µM	> 100 µM	> 100 µM	8.27 µM	6.26 µM	> 100 µM	> 100 µM	–	–	–
COc1ccccc1NC(=S)Nc1cc(C)ccn1	> 100 µM	> 100 µM	–	> 100 µM	> 100 µM	> 100 µM	> 100 µM	> 100 µM	> 100 µM	> 100 µM	> 100 µM	> 100 µM	–	> 100 µM	> 100 µM	> 100 µM	60.7 µM	> 100 µM	–
CC(=N)N(C)O	> 100 µM	> 100 µM	> 100 µM	> 100 µM	–	> 100 µM	> 100 µM	> 100 µM	> 100 µM	> 100 µM	> 100 µM	–	> 100 µM	> 100 µM	> 100 µM	> 100 µM	–	–	–
